Results published in the supplement of paper PMC13380429.

Key:
Conditions in all cases: 72 h
U2OS [1] = assay: relative viability EC50 (midpoint between 100% and the lowest measured viability); higher = less toxic
Vero E6 [2] = assay: as above
Caco-2 [3] = assay: as above
HepG2 [4] = assay: as above
Calu-3 [5] = assay: as above
U2OS [6] = assay: cell viability relative to DMSO; higher = less toxic
Vero E6 [7] = assay: as above
Caco-2 [8] = assay: as above
HepG2 [9] = assay: as above
Calu-3 [10] = assay: as above
U2OS [11] = assay: drug sensitivity score (DSS) for viability; higher = more toxic; extreme values may be limits of the assay
Vero E6 [12] = assay: as above
Caco-2 [13] = assay: as above
HepG2 [14] = assay: as above
Calu-3 [15] = assay: as above

SMILES	relative viability EC50 (U2OS [1]) [µM]	relative viability EC50 (Vero E6 [2]) [µM]	relative viability EC50 (Caco-2 [3]) [µM]	relative viability EC50 (HepG2 [4]) [µM]	relative viability EC50 (Calu-3 [5]) [µM]	cell viability (U2OS [6]; 1 nM) [%]	cell viability (U2OS [6]; 10 nM) [%]	cell viability (U2OS [6]; 100 nM) [%]	cell viability (U2OS [6]; 1000 nM) [%]	cell viability (U2OS [6]; 10000 nM) [%]	cell viability (Vero E6 [7]; 1 nM) [%]	cell viability (Vero E6 [7]; 10 nM) [%]	cell viability (Vero E6 [7]; 100 nM) [%]	cell viability (Vero E6 [7]; 1000 nM) [%]	cell viability (Vero E6 [7]; 10000 nM) [%]	cell viability (Caco-2 [8]; 1 nM) [%]	cell viability (Caco-2 [8]; 10 nM) [%]	cell viability (Caco-2 [8]; 100 nM) [%]	cell viability (Caco-2 [8]; 1000 nM) [%]	cell viability (Caco-2 [8]; 10000 nM) [%]	cell viability (HepG2 [9]; 1 nM) [%]	cell viability (HepG2 [9]; 10 nM) [%]	cell viability (HepG2 [9]; 100 nM) [%]	cell viability (HepG2 [9]; 1000 nM) [%]	cell viability (HepG2 [9]; 10000 nM) [%]	cell viability (Calu-3 [10]; 1 nM) [%]	cell viability (Calu-3 [10]; 10 nM) [%]	cell viability (Calu-3 [10]; 100 nM) [%]	cell viability (Calu-3 [10]; 1000 nM) [%]	cell viability (Calu-3 [10]; 10000 nM) [%]	drug sensitivity score (U2OS [11])	drug sensitivity score (Vero E6 [12])	drug sensitivity score (Caco-2 [13])	drug sensitivity score (HepG2 [14])	drug sensitivity score (Calu-3 [15])
COc1cc2c(Nc3ccc(Cl)c(Cl)c3F)ncnc2cc1OC[C@@H]1C[C@@H]2CN(C)C[C@@H]2C1 [XL647]	1.94	0.612	1.39	2.55	0.431	95.9	95.9	93.7	84.2	-0.3	96.8	100	85.1	39.2	-0.4	92.1	92.6	95	72.1	14.9	102	89.7	99.7	92.9	6.7	98.8	93.2	82.4	31	0.7	8.2	13.6	8.4	6.3	15.3
N#C/C(=C1/SC[C@@H](c2ccc(Cl)cc2Cl)S1)n1ccnc1 [luliconazole]	> 10	> 10	> 10	> 10	> 10	100	100	98.9	96.7	96.9	101	99	93.8	102	94.5	102	98.1	96.7	90.6	89.7	104	105	97.5	105	96	95.8	109	96.8	95.7	89.6	0	0	0	0	0
CC(Cc1ccc(O)cc1)NCC(O)c1cc(O)cc(O)c1 (stereo not given) [fenoterol]	> 10	> 10	> 10	> 10	> 10	101	95.1	96.4	98.5	98.4	97.6	108	96.7	103	92.1	124	99.3	103	92.4	111	84.4	92.7	94	93.8	82.9	103	114	105	95.9	103	0	0	0	0	0
O=[N+]([O-])/N=C1\NCCN1Cc1ccc(Cl)nc1 [imidacloprid]	> 10	> 10	> 10	> 10	> 10	97.4	95.7	103	92.3	94.4	95.1	95.8	96.7	98	96.5	104	94.6	99.8	88.6	104	98.2	109	99.7	98.9	93.1	103	98.5	103	98.8	106	0	0	0	0	0
N=C(N)NCCSSCCNC(=N)N [guanidinoethyldisulfide-bicarbonate]	> 10	> 10	> 10	> 10	> 10	106	96.8	100	96.8	102	97.5	96.3	102	96.2	91.4	101	87.2	93.6	101	91.8	93	101	96.4	97.9	93	99.7	106	99.9	98.6	108	0	0	0	0	0
COc1cc(C(=S)N2CCOCC2)ccc1O [vanitiolide]	> 10	> 10	> 10	> 10	> 10	104	99.5	95.4	98.7	101	97.2	91.6	93.4	95.2	105	87.7	92.9	102	106	97.6	99.8	92.8	97.2	102	109	108	108	99.1	98.4	104	0	0	0	0	0
c1ccc2sc(SNC3CCCCC3)nc2c1 [N-cyclohexyl-2-benzothiazolesulfenamide]	> 10	> 10	> 10	> 10	> 10	95.1	95	100	96.6	100	110	106	100	107	87.1	92.5	102	116	101	105	97.5	105	84.2	97.4	100	105	99.6	101	84	94.7	0	0	0	0	1.6
CN(C)CCCCSC(=N)N	> 10	> 10	> 10	> 10	> 10	94	92.8	100	94.7	97.8	104	108	101	105	99.3	104	111	99.6	105	97.9	104	103	90.7	93	95.1	90.6	89.5	89	91.8	90.1	0	0	0	0	0.8
Cc1cc(S(=O)(=O)O)c2c(C)ccc(C(C)C)cc1-2 [sodium-gualenate]	> 10	> 10	> 10	> 10	> 10	92.8	95.2	98	101	104	98	106	101	93.2	92.8	90.8	95.5	92.2	92.8	89.3	97.3	87.1	103	94.6	108	109	91.8	112	103	100	0	0	0	0	0
C=CCc1ccc(O)c(-c2cc(CC=C)ccc2O)c1 [magnolol]	> 10	> 10	> 10	> 10	> 10	96.7	102	99.2	102	95.3	98.6	98.3	98.9	101	94.8	104	95.3	88.6	102	89.5	97.8	85.7	97.8	102	106	99.3	90.3	90.3	99.4	110	0	0	0	0	0
Cc1cnc(-c2cc(N3CCN(C(=O)CCS(C)(=O)=O)CC3)ncc2Cl)c(C)c1	> 10	> 10	> 10	> 10	> 10	92.1	101	98.1	105	101	94.5	93.4	95.4	95.3	102	103	90.2	102	99.1	106	99.9	93.2	98.6	101	113	104	105	92.8	110	109	0	0	0	0	0
C[C@@H](c1ccc2nccn2c1)n1nnc2ncc(-c3cnn(C)c3)nc21 [savolitinib]	> 10	> 10	> 10	> 10	> 10	101	103	98.9	96.9	95.8	102	102	96.5	98.9	97.4	103	92.9	95.4	100	91.8	99.5	96.2	96.8	89.4	83.4	99.3	85.2	94.4	95.5	95.3	0	0	0	0.8	0
COc1cc(Nc2ncc(F)c(Nc3ccc4c(n3)NC(=O)C(C)(C)O4)n2)cc(OC)c1OC [R406]	> 10	> 10	> 10	> 10	> 10	95.8	100	94.3	97.8	88.9	100	99	93.8	91	81.9	96.7	102	86.9	92.1	75.5	98.1	103	102	92.1	88.8	85.3	89.8	97.6	101	85.6	0	0.9	1.7	0.2	0.2
CC(C)=CC[C@@H](O)C1=CC(=O)c2c(O)ccc(O)c2C1=O [Shikonin]	0.26	0.29	0.587	0.313	0.711	96.9	100	89.5	4.8	0.2	95.8	96.3	91.2	6.1	-0.3	99.6	103	94.3	30.6	1.1	102	97.5	97.4	2.2	-0.3	98.7	112	96.5	36.5	2	18.9	18.3	14.1	18	13
